Laboratory results taken from ChEMBL document CHEMBL1770124, “Synthesis and in vitro evaluation of [18F]fluoroethyl triazole labelled [Tyr3]octreotate analogues using click chemistry” (Bioorg Med Chem Lett, 2011).
Where a SMILES comes first, the peptide text is derived from it. Bridges are numbered along the chain shown (N, C = ends). [ ]: non-standard residue; d: D form. The star is where a group is joined. Threoninol(2S,3R) = C[C@@H](O)[C@H](CO)N*

Assays:
[1] = Displacement of [111In]-DTPA-octreotide from somatostatin receptor in rat AR42J cells; assay type: cell-based; details: ar-42j
[2] = Partition coefficient, log D of the compound; assay type: physicochemical; details: octanol/water
[3] = Displacement of [125I]-somatostatin-14 from somatostatin receptor in rat AR42J cells; assay type: cell-based; details: ar-42j

Row | Compound | IC50 [1] | logD [2] | IC50 [3]
1 | C[C@@H](O)[C@H](NC(=O)[C@@H]1CSSC[C@H](NC(=O)[C@@H](Cc2ccccc2)NC(=O)CNC(=O)c2cn(CC[18F])nn2)C(=O)N[C@@H](Cc2ccc(O)cc2)C(=O)N[C@H](Cc2c[nH]c3ccccc23)C(=O)N[C@@H](CCCCN)C(=O)N[C@@H]([C@@H](C)O)C(=O)N1)C(=O)O | 0.004 µM | -1.83 | –
2 | C#CC(=O)NCC(=O)NCCOCCOCCOCCOCCOCCOCCC(=O)N[C@H](Cc1ccccc1)C(=O)N[C@H]1CSSC[C@@H](C(=O)N[C@H](C(=O)O)[C@@H](C)O)NC(=O)[C@H]([C@@H](C)O)NC(=O)[C@H](CCCCN)NC(=O)[C@@H](Cc2c[nH]c3ccccc23)NC(=O)[C@H](Cc2ccc(O)cc2)NC1=O | 0.00523 µM | – | –
3 | C[C@@H](O)[C@H](NC(=O)[C@@H]1CSSC[C@H](NC(=O)[C@@H](Cc2ccccc2)NC(=O)CCOCCOCCOCCOCCOCCOCCNC(=O)CNC(=O)c2cn(CC[18F])nn2)C(=O)N[C@@H](Cc2ccc(O)cc2)C(=O)N[C@H](Cc2c[nH]c3ccccc23)C(=O)N[C@@H](CCCCN)C(=O)N[C@@H]([C@@H](C)O)C(=O)N1)C(=O)O | 0.0108 µM | -2.68 | –
4 | C#CCCC(=O)NCCOCCOCCOCCOCCOCCOCCC(=O)N[C@H](Cc1ccccc1)C(=O)N[C@H]1CSSC[C@@H](C(=O)N[C@H](C(=O)O)[C@@H](C)O)NC(=O)[C@H]([C@@H](C)O)NC(=O)[C@H](CCCCN)NC(=O)[C@@H](Cc2c[nH]c3ccccc23)NC(=O)[C@H](Cc2ccc(O)cc2)NC1=O | 0.0051 µM | – | –
5 | C[C@@H](O)[C@H](NC(=O)[C@@H]1CSSC[C@H](NC(=O)[C@@H](Cc2ccccc2)NC(=O)CCOCCOCCOCCOCCOCCOCCNC(=O)CCc2cn(CC[18F])nn2)C(=O)N[C@@H](Cc2ccc(O)cc2)C(=O)N[C@H](Cc2c[nH]c3ccccc23)C(=O)N[C@@H](CCCCN)C(=O)N[C@@H]([C@@H](C)O)C(=O)N1)C(=O)O | 0.0132 µM | -2.77 | –
6 | C#CC(=O)NCC(=O)N[C@H](Cc1ccccc1)C(=O)N[C@H]1CSSC[C@@H](C(=O)N[C@H](C(=O)O)[C@@H](C)O)NC(=O)[C@H]([C@@H](C)O)NC(=O)[C@H](CCCCN)NC(=O)[C@@H](Cc2c[nH]c3ccccc23)NC(=O)[C@H](Cc2ccc(O)cc2)NC1=O | 0.0014 µM | – | –
7 | C#CCCC(=O)N[C@H](Cc1ccccc1)C(=O)N[C@H]1CSSC[C@@H](C(=O)N[C@H](C(=O)O)[C@@H](C)O)NC(=O)[C@H]([C@@H](C)O)NC(=O)[C@H](CCCCN)NC(=O)[C@@H](Cc2c[nH]c3ccccc23)NC(=O)[C@H](Cc2ccc(O)cc2)NC1=O | 0.0018 µM | – | –
8 | C#CC(=O)NCCC(=O)NCC(=O)N[C@H](Cc1ccccc1)C(=O)N[C@H]1CSSC[C@@H](C(=O)N[C@H](C(=O)O)[C@@H](C)O)NC(=O)[C@H]([C@@H](C)O)NC(=O)[C@H](CCCCN)NC(=O)[C@@H](Cc2c[nH]c3ccccc23)NC(=O)[C@H](Cc2ccc(O)cc2)NC1=O | 0.001 µM | – | –
9 | C[C@@H](O)[C@@H]1NC(=O)[C@@H](NC(=O)[C@@H](Cc2cc3ccccc3[nH]2)NC(=O)CNC(=O)CCNC(=O)c2cn(CC[18F])nn2)CSSC[C@@H](C(=O)N[C@@H](CCCCN)C(=O)O)NC(=O)[C@H](Cc2ccc(O)cc2)NC(=O)[C@H]([C@@H](C)O)NC(=O)[C@@H](Cc2ccccc2)NC1=O | > 10000 µM | -1.14 | –
10 | C[C@@H](O)[C@H](NC(=O)[C@@H]1CSSC[C@H](NC(=O)[C@@H](Cc2ccccc2)NC(=O)CCc2cn(CC[18F])nn2)C(=O)N[C@@H](Cc2ccc(O)cc2)C(=O)N[C@H](Cc2c[nH]c3ccccc23)C(=O)N[C@@H](CCCCN)C(=O)N[C@@H]([C@@H](C)O)C(=O)N1)C(=O)O | 0.0029 µM | -1.5 | –
11 | C[C@@H](O)[C@H](CO)NC(=O)[C@@H]1CSSC[C@H](NC(=O)[C@H](N)Cc2ccccc2)C(=O)N[C@@H](Cc2ccccc2)C(=O)N[C@H](Cc2c[nH]c3ccccc23)C(=O)N[C@@H](CCCCN)C(=O)N[C@@H]([C@@H](C)O)C(=O)N1 (H-[dF]CF[dW]KTC-{Threoninol(2S,3R)}; disulfide 2-7) | – | – | 0.0147 µM
